Assay results reported in patent US20060205028A1, “Active-site titration of glycosyl hydrolases” (Novozymes A/S, priority 2003, published 2006).

Tested on: xylanase Shearzyme
Assay: Burst active site titration of xylanase
Type: biochemical
Conditions: for Burst B: pH 5.0, room temperature
Experimental: The synthesized burst active site titrant 2,4-dinitrophenyl 2-deoxy-2-flouro-β-D-xylopyranoside was dissolved in Milli Q water. 100 μl dissolved titrant was mixed with 50 μl assay buffer (50 mM sodium acetate, 0.0225% Brij 35, pH 5.0) and 50 μl of a purified sample of the commercial xylanase Shearzyme (available from Novozymes) diluted in Milli Q water in the wells of a microtiter plate. Final concentrations of 2,4-dinitrophenyl 2-deoxy-2-flouro-β-D-xylopyranoside were 0.5 mM and 1 mM, whereas the xylanase was added to give final absorbances at 280 nm of 13.4, 6.7 and 3.3. After mixing, absorbance was read at 405 nm at room temperature every 7 min for 30 hours using a SpectraMax Plus (Molecular Devices) microtiter plate reader. After subtraction of absorbances read in wells with same concentration of titrant but without enzyme, the measurements were fitted to the equation: A405=B*(1−exp(−(t+LT)*ln(2)/T1/2))+S*(t+LT)
where A405 is the absorbance at 405 nm, B is the burst in absorbance at 405 nm, t is the time from first measurement of absorbance, LT is the lag time from mixing of the reagents to first measurement of absorbance, T1/2 is the half time for the exponential burst phase and S is the slope due to hydrolysis of the enzyme 2-deoxy-2-fluoro-β-D-xylopyranose complex.

[1] = Xylanase A280 3.3, titrant 0.5 mM
[2] = Xylanase A280 3.3, titrant 1 mM
[3] = Xylanase A280 6.7, titrant 0.5 mM
[4] = Xylanase A280 6.7, titrant 1 mM
[5] = Xylanase A280 13.4, titrant 0.5 mM
[6] = Xylanase A280 13.4, titrant 1 mM

With O=[N+]([O-])c1ccc(O[C@@H]2OC[C@@H](O)[C@H](O)[C@H]2F)c([N+](=O)[O-])c1 [2,4-dinitrophenyl 2-deoxy-2-flouro-β-D-xylopyranoside] the “Slope S (hydrolysis of the enzyme 2-deoxy-2-fluoro-β-D-xylopyranose complex)” value (“Slope S” below) [1] was 0.00 A405/h, the “Burst B” value [1] was 0.24 A405 and the “Slope S” value [2] was 0.00 A405/h. For the same molecule, the “Burst B” value [2] was 0.23 A405, the “Slope S” value [3] was 0.00 A405/h and the “Burst B” value [3] was 0.47 A405. The “Slope S” value [4] was 0.00 A405/h, the “Burst B” value [4] was 0.48 A405 and the “Slope S” value [5] was 0.00 A405/h. For the same molecule, the “Burst B” value [5] was 0.84 A405, the “Slope S” value [6] was 0.00 A405/h and the “Burst B” value [6] was 0.90 A405.
